In US5472973A, “Fluorenyl derivatives as anti-inflammatory agents” (Scios Nova Inc., priority 1992, dated 1995):

Key:
[1] = tested on: reverse passive Arthus reaction; assay: Reverse Passive Arthus Reaction (RPA); format: in vivo, rat (male SD); settings: ip, rat
Description: Male SD rats weighing between 200 and 300 g were used. Test compounds were dissolved in dimethyl sulfoxide and 1 ml/kg of this stock solution (100 mg/ml), on serial dilutions were injected intraperitoneally one hour before administration of the antigen or given orally. The animals were anesthetized inhalationally with isoflurane and then injected through the penile vein with 1 ml of a solution of 2.5 mg of Evan's blue dye and 5.0 mg of human serum albumin in 1 ml of saline. This treatment was followed immediately by intracutaneous injections of 0.075 ml of anti-human albumin diluted to contain 4.38 mg/ml of antibody at 2 sites opposite the midline back. Anesthesia was terminated and after three hours, the animals were sacrificed. The skin was removed and the blue stained areas cut out. The skin patches were soaked overnight in stoppered tubes containing 2 ml of 1N potassium hydroxide at 5° C. Then 9 ml of a mixture of five parts of a 1.2N phosphoric acid and thirteen parts of acetone were added to the tubes. The tube contents were agitated and centrifuged, and the absorbance measured at 620 nm. The data were calculated as inhibition of blueing by test compound compared to control animals receiving only antigen and antibody.

[2] = tested on: oxazolone-induced ear edema; assay: Inhibition of ear edema caused by oxazolone; format: in vivo, mouse (CF-1); settings: given orally, mouse, 24 h; dose not given
Description: CF-1 mice, 25-30 g body weight, six animals per group were used. The mice were sensitized to the irritant two weeks prior to the test by dribbling 100 μL of a 3% solution of oxazolone in acetone onto the scrotum of the animal. Test compounds were administered orally at doses of 100 mg/kg and 300 mg/kg for 1 hour prior to oxazolone, intraperitoneally as follows: The test compound was dissolved in dimethyl sulfoxide and doses of 10 mg/kg, 30 mg/kg and 100 mg/kg were injected 15 minutes prior to irritant. The irritant, 3% oxazolone in acetone, was added to the surface of the ear, 5 μl added to the upper surface and 5 μl added to the lower surface. After twenty four hours, the thickness of the ear was measured to 0.01 mm by a micrometer with loose drag, positioned at the lateral-most edge of the mid-point of the pinna. Data were calculated as the inhibition of increased ear thickness compared to control animals' receiving only the irritant. In general, % inhibition of greater than 20% is statistically significant (p<0.05 or less, Student's t-test for unpaired data).

inflammatory screens = assay: Anti-inflammatory activity, general statements (oral activity, inflammatory screens); format: in vivo
Description: Such inflammatory agents typically include oxazolone, and the like. The reverse passive Arthus test offers another measure of the compound's utility in preventing an inflammatory response (Chang et al. Eur. J. Phar. 69:155-164 (1981)). Test compounds are typically administered intraperitoneally or orally. For intraperitoneal administration, the test compound can be given in dimethyl sulfoxide or in 0.5% methylcellulose 30 minutes prior to administration of the irritant. For oral administration, the test compound can be compounded into tablet or capsule form as well as dissolved in, for example, water or ethanol and swallowed prior to application of the irritant. Results can be expressed as the percent decrease in swelling in the compound-treated animals as compared to control animals that receive only the irritant.

plasma fibrinogen = assay: Adjuvant arthritis, plasma fibrinogen inhibition in rats; format: in vivo, rat (male Sprague Dawley); settings: po, rat; for ED (maximal inhibition) at 100 mg/kg: 0.3 to 100 mg/kg, read-out: AA (p.o.) Dose yielding max inhibition (100 mg/kg)

Structure (SMILES) | ED50 [1] [mg/kg] | inhibition of increased ear thickness (oxazolone) [2] [%] | activity when taken orally (inflammatory screens) | ED (maximal inhibition) at 100 mg/kg (plasma fibrinogen) [mg/kg] | ED (maximal inhibition) (plasma fibrinogen; given orally, read-out: dose achieving maximum inhibition of plasma fibrinogen) [mg/kg]
O=C(Nc1ccc(C(=O)O)cc1)OCCC1c2ccccc2-c2ccccc21 [Example 7, N-[9H-(Fluorenyl-9-ethoxycarbonyl)]amino-4-benzoic acid] | 70 | 50 | exhibit activity even when taken orally | 30 | 3
Cc1ccc2c(c1)C(CCOC(=O)Nc1ccc(C(=O)O)cc1)c1cc(C)ccc1-2 [Example 8, N-[9H-(2,7-Dimethylfluorenyl-9-ethoxycarbonyl)]amino-4-benzoic acid] | 100 |  | exhibit activity even when taken orally | 100 | 
O=C(Nc1ccc(C(=O)O)cc1)OCCC1c2cc(Cl)ccc2-c2ccc(Cl)cc21 [Example 9] | 34 |  | exhibit activity even when taken orally | 3 | 
O=C(Nc1ccc(C(=O)O)cc1)OC1c2ccccc2-c2ccccc21 [N-(9H-fluorenyl-9-oxycarbonyl)-4-aminobenzoic acid] |  |  | exhibit activity even when taken orally |  | 
O=C(Nc1ccc(C(=O)NS(=O)(=O)c2ccccc2)cc1)OCCC1c2ccccc2-c2ccccc21 [N-{[9H-(fluorenyl-9-ethoxycarbonyl)]-4-amino-benzoyl}-benzenesulfonamide] |  |  | exhibit activity even when taken orally |  | 
